Laboratory results: ChEMBL document CHEMBL2177034, “Inhibition of hypoxia inducible factor-2 transcription: isolation of active modulators from marine sponges” (J Nat Prod, 2012)
pEC50, pIC50: −log10 of the molar value. The source made the active and inactive calls. The calls are words filed in the database; no cut-off is given here.

Legend:
[1] = molecular target: T1, Endothelial PAS domain-containing protein 1 (Homo sapiens, UniProt Q99814); test: Inhibition of HIF2alpha in human 786-0 cells expressing truncated HIF1alpha assessed as reduction in luciferase activity after 24 hrs by reporter gene assay; format: cell-based
T1 sequence (Q99814 whole entry, the tested form may be a part): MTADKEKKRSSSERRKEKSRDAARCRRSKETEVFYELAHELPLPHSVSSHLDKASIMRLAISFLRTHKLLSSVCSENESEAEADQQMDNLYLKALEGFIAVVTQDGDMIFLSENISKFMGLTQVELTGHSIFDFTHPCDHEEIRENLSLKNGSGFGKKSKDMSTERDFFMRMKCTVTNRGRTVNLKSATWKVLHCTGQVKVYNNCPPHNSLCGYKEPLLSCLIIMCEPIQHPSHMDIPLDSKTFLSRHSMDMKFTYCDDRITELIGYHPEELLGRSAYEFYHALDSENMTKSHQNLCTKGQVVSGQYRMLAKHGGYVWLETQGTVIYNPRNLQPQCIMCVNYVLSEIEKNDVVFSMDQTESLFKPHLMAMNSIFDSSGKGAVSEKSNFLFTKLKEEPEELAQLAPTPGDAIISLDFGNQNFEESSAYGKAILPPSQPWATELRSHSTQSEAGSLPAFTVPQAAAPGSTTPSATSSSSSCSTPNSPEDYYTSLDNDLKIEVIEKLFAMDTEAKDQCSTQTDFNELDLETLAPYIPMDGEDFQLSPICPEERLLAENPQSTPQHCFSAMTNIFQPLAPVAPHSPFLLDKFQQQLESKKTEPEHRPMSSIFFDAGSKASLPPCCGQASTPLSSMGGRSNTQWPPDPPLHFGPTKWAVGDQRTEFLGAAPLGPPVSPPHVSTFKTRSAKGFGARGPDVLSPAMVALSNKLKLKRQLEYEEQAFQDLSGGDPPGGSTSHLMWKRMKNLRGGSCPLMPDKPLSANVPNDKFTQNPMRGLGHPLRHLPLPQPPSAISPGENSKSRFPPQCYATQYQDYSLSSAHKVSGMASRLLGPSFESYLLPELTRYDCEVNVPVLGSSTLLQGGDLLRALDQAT

[2] = molecular target: T1, Endothelial PAS domain-containing protein 1; test: Inhibition of HIF2alpha in human 786-0 cells assessed as reduction in TGFalpha mRNA expression at 1 uM after 48 hrs by RT-PCR analysis; format: cell-based
[3] = Downregulation of HIF2alpha mRNA expression in human RCC4 cells at 1 uM after 48 hrs by RT-PCR analysis; format: functional, cell-based
[4] = molecular target: Hypoxia-inducible factor 1-alpha (Homo sapiens) (UniProt Q16665); test: Inhibition of HIF1alpha in human SK-RC-28 cells assessed as reduction in VEGFA at 1 uM after 48 hrs by RT-PCR analysis; format: cell-based
Chain of Hypoxia-inducible factor 1-alpha (Homo sapiens) (Q16665 whole entry, looked up, the tested form may be a part): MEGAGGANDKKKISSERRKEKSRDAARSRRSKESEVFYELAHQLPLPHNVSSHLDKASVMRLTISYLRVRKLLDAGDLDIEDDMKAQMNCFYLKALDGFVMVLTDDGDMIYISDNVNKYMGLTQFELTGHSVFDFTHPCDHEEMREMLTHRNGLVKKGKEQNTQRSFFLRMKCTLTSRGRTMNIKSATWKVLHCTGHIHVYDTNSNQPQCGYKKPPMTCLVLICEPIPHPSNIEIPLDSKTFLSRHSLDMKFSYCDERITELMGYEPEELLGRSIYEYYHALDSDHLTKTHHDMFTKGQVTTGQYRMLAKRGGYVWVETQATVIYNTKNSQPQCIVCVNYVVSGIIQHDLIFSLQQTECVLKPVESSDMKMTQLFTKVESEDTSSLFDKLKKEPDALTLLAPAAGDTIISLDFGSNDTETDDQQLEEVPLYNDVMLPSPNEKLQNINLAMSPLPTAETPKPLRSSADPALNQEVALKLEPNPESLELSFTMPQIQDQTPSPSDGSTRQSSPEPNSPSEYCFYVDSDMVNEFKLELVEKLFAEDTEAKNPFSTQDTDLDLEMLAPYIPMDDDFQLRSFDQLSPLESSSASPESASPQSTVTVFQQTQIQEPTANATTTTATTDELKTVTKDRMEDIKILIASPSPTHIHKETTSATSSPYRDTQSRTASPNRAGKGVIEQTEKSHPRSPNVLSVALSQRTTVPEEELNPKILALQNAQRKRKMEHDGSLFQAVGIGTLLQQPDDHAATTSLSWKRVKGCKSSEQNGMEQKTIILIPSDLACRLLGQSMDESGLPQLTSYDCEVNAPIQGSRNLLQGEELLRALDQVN

[5] = molecular target: T1, Endothelial PAS domain-containing protein 1; test: Inhibition of HIF2alpha in human 786-0 cells assessed as reduction in VEGFA at 1 uM after 48 hrs by RT-PCR analysis; format: cell-based
[6] = molecular target: T1, Endothelial PAS domain-containing protein 1; test: Inhibition of HIF2alpha in human RCC4 cells coexpressing HIF1alpha assessed as reduction in CCND1 mRNA expression at 1 uM after 48 hrs by RT-PCR analysis; format: cell-based
[7] = molecular target: T1, Endothelial PAS domain-containing protein 1; test: Inhibition of HIF2alpha in human RCC4 cells coexpressing HIF1alpha assessed as reduction in GLUT1 mRNA expression at 1 uM after 48 hrs by RT-PCR analysis; format: cell-based
[8] = Cytotoxicity against human SK-RC-28 cells expressing HIF1alpha after 2 days by XTT assay; format: functional, cell-based; conditions: 48 h
[9] = Downregulation of HIF1alpha mRNA expression in human RCC4 cells at 1 uM after 48 hrs by RT-PCR analysis; format: functional, cell-based
[10] = Downregulation of CCND1 mRNA expression in human SK-RC-28 cells at 1 uM after 48 hrs by RT-PCR analysis; format: functional, cell-based
786-0 [11] = test: Downregulation of HIF1alpha mRNA expression in human 786-0 cells at 1 uM after 48 hrs by RT-PCR analysis; format: functional, cell-based
[12] = Downregulation of HIF1alpha mRNA expression in human SK-RC-28 cells at 1 uM after 48 hrs by RT-PCR analysis; format: functional, cell-based
[13] = molecular target: T2, Hypoxia inducible factors; HIF-1-alpha, HIF-2-alpha (Homo sapiens) (UniProt Q16665+Q99814); test: Inhibition of HIF1alpha/2alpha in human RCC4 cells assessed as reduction in VEGFA mRNA expression at 1 uM after 48 hrs by RT-PCR analysis; format: cell-based
[14] = Downregulation of GLUT1 mRNA expression in human SK-RC-28 cells at 1 uM after 48 hrs by RT-PCR analysis; format: functional, cell-based
786-0 [15] = test: Inhibition of HIF-mediated VEGFA protein expression in serum deprived human 786-0 cells at 1 uM after 48 hrs relative to control; format: cell-based
786-0 [16] = test: Cytotoxicity against human 786-0 cells expressing HIF2alpha after 2 days by XTT assay; format: functional, cell-based; conditions: 786-0, 48 h
[17] = Cytotoxicity against human RCC4 cells expressing HIF2alpha and HIF1alpha after 2 days by XTT assay; format: functional, cell-based; conditions: RCC4, 48 h
[18] = molecular target: T1, Endothelial PAS domain-containing protein 1; test: Inhibition of HIF2alpha in human 786-0 cells assessed as reduction in GLUT1 mRNA expression at 1 uM after 48 hrs by RT-PCR analysis; format: cell-based
[19] = molecular target: T1, Endothelial PAS domain-containing protein 1; test: Inhibition of HIF2alpha in human 786-0 cells assessed as reduction in CCND1 mRNA expression at 1 uM after 48 hrs by RT-PCR analysis; format: cell-based
[20] = molecular target: Hypoxia-inducible factor 1-alpha (Homo sapiens) (UniProt Q16665); test: Inhibition of HIF1alpha in human RCC4 cells coexpressing HIF2alpha assessed as decrease in carbonic anhydrase 9 mRNA expression at 1 uM after 48 hrs by RT-PCR analysis; format: cell-based
786-0 [21] = test: Downregulation of HIF2alpha mRNA expression in human 786-0 cells at 1 uM after 48 hrs by RT-PCR analysis; format: functional, cell-based
[22] = molecular target: Hypoxia-inducible factor 1-alpha (Homo sapiens) (UniProt Q16665); test: Inhibition of HIF1alpha in human SK-RC-28 cells assessed as reduction in carbonic anhydrase 9 expression at 1 uM after 48 hrs by RT-PCR analysis; format: cell-based
[23] = molecular target: T1, Endothelial PAS domain-containing protein 1; test: Inhibition of HIF2alpha in human RCC4 cells coexpressing HIF1alpha assessed as reduction in TGFalpha mRNA expression at 1 uM after 48 hrs by RT-PCR analysis; format: cell-based
[24] = Downregulation of HIF2alpha mRNA expression in human SK-RC-28 cells at 1 uM after 48 hrs by RT-PCR analysis; format: functional, cell-based
786-0 [25] = test: Down regulation of carbonic anhydrase 9 expression in human 786-0 cells at 1 uM after 48 hrs by RT-PCR analysis; format: functional, cell-based
[26] = Downregulation of TGFalpha mRNA expression in human SK-RC-28 cells at 1 uM after 48 hrs by RT-PCR analysis; format: functional, cell-based
786-0 [27] = test: Downregulation of HIF2alpha mRNA expression in human 786-0 cells at 20 uM after 48 hrs by RT-PCR analysis; format: functional, cell-based
786-0 [28] = test: Inhibition of total protein expression in serum deprived human 786-0 cells at 20 uM after 48 hrs relative to control; format: cell-based; conditions: 786-0, 48 h, 20 µM
786-0 [29] = test: Inhibition of HIF-mediated VEGFA protein expression in serum deprived human 786-0 cells at 20 uM after 48 hrs relative to control; format: cell-based
[30] = molecular target: Hypoxia-inducible factor 1-alpha (Homo sapiens) (UniProt Q16665); test: Inhibition of HIF1alpha in human SK-RC-28 cells assessed as reduction in carbonic anhydrase expression at 20 uM after 48 hrs by RT-PCR analysis; format: cell-based
[31] = molecular target: Hypoxia-inducible factor 1-alpha (Homo sapiens) (UniProt Q16665); test: Induction of HIF1alpha in human RCC4 cells assessed as increase in […] 9 expression at 20 uM after 48 hrs by RT-PCR analysis relative to control; format: cell-based
[32] = molecular target: T1, Endothelial PAS domain-containing protein 1; test: Inhibition of HIF2alpha in human RCC4 cells coexpressing HIF1alpha assessed as reduction in TGFalpha mRNA expression at 20 uM after 48 hrs by RT-PCR analysis; format: cell-based
[33] = molecular target: T1, Endothelial PAS domain-containing protein 1; test: Inhibition of HIF2alpha in human 786-0 cells assessed as reduction in GLUT1 mRNA expression at 20 uM after 48 hrs by RT-PCR analysis; format: cell-based
[34] = Downregulation of HIF1alpha mRNA expression in human SK-RC-28 cells at 20 uM after 48 hrs by RT-PCR analysis; format: functional, cell-based
[35] = Downregulation of HIF2alpha mRNA expression in human RCC4 cells at 20 uM after 48 hrs by RT-PCR analysis; format: functional, cell-based
[36] = molecular target: Hypoxia-inducible factor 1-alpha (Homo sapiens) (UniProt Q16665); test: Inhibition of HIF1alpha in human SK-RC-28 cells assessed as reduction in VEGFA expression at 20 uM after 48 hrs by RT-PCR analysis; format: cell-based
[37] = molecular target: T1, Endothelial PAS domain-containing protein 1; test: Inhibition of HIF2alpha in human 786-0 cells assessed as reduction in VEGFA mRNA expression at 20 uM after 48 hrs by RT-PCR analysis; format: cell-based
[38] = Downregulation of GLUT1 mRNA expression in human SK-RC-28 cells at 20 uM after 48 hrs by RT-PCR analysis; format: functional, cell-based
[39] = molecular target: T1, Endothelial PAS domain-containing protein 1; test: Inhibition of HIF2alpha in human 786-0 cells assessed as reduction in TGFalpha mRNA expression at 20 uM after 48 hrs by RT-PCR analysis; format: cell-based
[40] = molecular target: T1, Endothelial PAS domain-containing protein 1; test: Inhibition of HIF2alpha in human RCC4 cells coexpressing HIF1alpha assessed as reduction in CCND1 mRNA expression at 20 uM after 48 hrs by RT-PCR analysis; format: cell-based
786-0 [41] = test: Downregulation of HIF1alpha mRNA expression in human 786-0 cells at 20 uM after 48 hrs by RT-PCR analysis; format: functional, cell-based
[42] = Downregulation of HIF1alpha mRNA expression in human RCC4 cells at 20 uM after 48 hrs by RT-PCR analysis; format: functional, cell-based
[43] = molecular target: T1, Endothelial PAS domain-containing protein 1; test: Inhibition of HIF2alpha in human 786-0 cells assessed as reduction in CCND1 mRNA expression at 20 uM after 48 hrs by RT-PCR analysis; format: cell-based
[44] = molecular target: T2, Hypoxia inducible factors; HIF-1-alpha, HIF-2-alpha (Homo sapiens); test: Inhibition of HIF1alpha/2alpha in human RCC4 cells assessed as reduction in VEGFA mRNA expression at 20 uM after 48 hrs by RT-PCR analysis; format: cell-based
[45] = Downregulation of TGFalpha mRNA expression in human SK-RC-28 cells at 20 uM after 48 hrs by RT-PCR analysis; format: functional, cell-based
[46] = Downregulation of CCND1 mRNA expression in human SK-RC-28 cells at 20 uM after 48 hrs by RT-PCR analysis; format: functional, cell-based
[47] = Downregulation of HIF2alpha mRNA expression in human SK-RC-28 cells at 20 uM after 48 hrs by RT-PCR analysis; format: functional, cell-based
[48] = molecular target: T1, Endothelial PAS domain-containing protein 1; test: Inhibition of HIF2alpha in human RCC4 cells coexpressing HIF1alpha assessed as reduction in GLUT1 mRNA expression at 20 uM after 48 hrs by RT-PCR analysis; format: cell-based

Molecule `CC(=O)O[C@H]1C[C@H]2[C@@](C)(CC[C@H]3C(C)(C)CCC[C@@]32C=O)[C@@H]2CC=C(C(C)=O)[C@H](C=O)[C@@]12C` has a pEC50 [1] of 5.38.
In the case of `Nc1nccc(-c2c3c(O)ccnc3n3c(N)nccc23)n1` [VARIOLIN B], the inhibition [2] was “inactive”, the Activity [3] was “inactive” and the inhibition [4] was “inactive”. The inhibition [5] was “inactive”, the inhibition [6] was “inactive” and the inhibition [7] was “inactive”. For the same molecule, the pIC50 [8] was less than 4.00, the Activity [9] was “inactive” and the Activity [10] was “inactive”. For the same molecule, the Activity (786-0 [11]) was “inactive”, the Activity [12] was “inactive” and the inhibition [13] was “inactive”. For the same molecule, the Activity [14] was “inactive”, the inhibition (786-0 [15]) was 50% and the pIC50 (786-0 [16]) was less than 4.00. For the same molecule, the pEC50 [1] was 6.15, the pIC50 [17] was 5.06 and the inhibition [18] was “inactive”. The inhibition [19] was “inactive”, the inhibition [20] was “inactive” and the Activity (786-0 [21]) was “inactive”. For the same molecule, the inhibition [22] was “inactive”, the inhibition [23] was “inactive” and the Activity [24] was “inactive”. The Activity (786-0 [25]) was “inactive” and the Activity [26] was “inactive”.
Work on `CC(=O)OC[C@]12CCCC(C)(C)[C@@H]1CC[C@]1(C)[C@@H]2C[C@H]2OC(=O)[C@H]3[C@H](C(C)=O)[C@@H](O)C[C@@H]1[C@]23C` yielded a pEC50 [1] of less than 4.00.
`COC1=C(C)C(=O)c2cc(=O)n(C)c(C)c2C1=O` [MIMOSAMYCIN] showed a pEC50 [1] of less than 4.00.
For `CC1(C)CCC[C@]2(C)[C@H]3C=C4C=C(O)C(=O)C=C4O[C@@]3(C)CC[C@@H]12` [PUUPEHENONE], the Activity (786-0 [27]) was “Active”, the Activity (786-0 [28]) was “Toxic” and the inhibition (786-0 [29]) was “Active”. For the same molecule, the inhibition [30] was “inactive”, the pIC50 [8] was 4.81 and the fold change (FC) [31] was 4. For the same molecule, the inhibition [32] was “Active”, the inhibition [33] was “Active” and the Activity [34] was “inactive”. The Activity [35] was “Active”, the inhibition [36] was “inactive” and the inhibition [37] was “Active”. For the same molecule, the Activity [38] was “inactive”, the pIC50 (786-0 [16]) was 4.75 and the pEC50 [1] was 5.48. The pIC50 [17] was 4.74, the inhibition [39] was “Active” and the inhibition [40] was “Active”. For the same molecule, the Activity (786-0 [41]) was “Active”, the Activity [42] was “Active” and the inhibition [43] was “Active”. The inhibition [44] was “Active”, the Activity [45] was “inactive” and the Activity [46] was “inactive”. The Activity [47] was “inactive” and the inhibition [48] was “Active”.
